# Data as given in paper PMC10331583, “Control of fibrosis with enhanced safety via asymmetric inhibition of prolyl‐tRNA synthetase 1” (EMBO Molecular Medicine, 2023).
# pIC50: −log10 of the molar value. “And” between values parts separate entries of the source, which are not always exact repeats. Identical values can stand only once. Like-named read-outs stand apart in the source and are kept apart here.
# Assays:
# [1] = test system: WI‐26 VA4 cells; test: Puromycin incorporation assay; assay type: cell-based, human
# Description: After being rinsed with cold PBS twice, the cells were collected and resuspended in 200 μl of the carbonate bicarbonate buffer (Sigma Aldrich, C3041‐50CAP) with protease inhibitor. The cell lysates were obtained by sonication and centrifugation at 20,000 g for 15 min at 4°C. After protein quantification using a Pierce™ BCA Protein Assay Kit (Thermo Fisher Scientific, 23225), 400 ng of the proteins was coated to ELISA plates for 18 h at 4°C. […] The plates were rinsed with the washing buffer for three times after each antibody incubation step. […] The amount of puromycin incorporated in proteins was determined by measuring the absorbance at 450 nm (reference wavelength at 620 nm). Experimental values marked in red with strikethrough text in the Figure Source Data file were excluded from the analysis. These values were determined by considering the values of biological and technical replicates under the same condition, as well as the values at the former and later chemical concentrations.
# [2] = test system: TNT Quick Coupled Transcription/Translation System (luciferase synthesis); assay type: biochemical
# [3] = test system: WI‐26 VA4 cells; test: Collagen ELISA (secreted pro‐collagen I)
# [4] = log(inhibitor) vs. response, variable slope (four parameters)
# [5] = log(inhibitor) vs. response, variable slope (four parameters), concentration in nM
structure (smiles),measurement,setting,value
O=C(C[C@H]1NCCC[C@@H]1O)Cn1cnc2ccc(-c3cccc(F)c3)cc21 [DWN11251],activity at 10 µM,"[1]; Homo sapiens, WI26VA4, 10000 nM, read-out: Puromycin, % of control, single replicate",20.3%
same,activity at 30 µM,"[1]; Homo sapiens, WI26VA4, 30000 nM, read-out: Puromycin, % of control, average",0.74%
same,pIC50,"[1]; Homo sapiens, WI26VA4, log(inhibitor) vs. response, variable slope (four parameters), read-out: Puromycin, IC50 (best-fit value)",5.37
same,"Puromycin, HillSlope (best-fit value)",[1]; [4],-1.784
same,"Puromycin, LogIC50 (best-fit value)",[1]; [5],3.627
same,TNT-luciferase % of control,"[2]; 60 nM, Experiment #1, replicates, 0.06 µM",107.20 % of control and 104.88 % of control and 105.66 % of control
same,TNT-luciferase % of control,"[2]; 60 nM, Experiment #2, replicates, 0.06 µM",114.45 % of control and 123.12 % of control and 122.25 % of control
same,"TNT-luciferase % of control, average",[2]; 60 nM,112.93 % of control
same,TNT-luciferase % of control,"[2]; 200 nM, Experiment #1, replicates, 0.2 µM",108.74 % of control and 107.20 % of control and 111.83 % of control
same,TNT-luciferase % of control,"[2]; 200 nM, Experiment #2, replicates, 0.2 µM",104.91 % of control and 109.25 % of control and 124.86 % of control
same,"TNT-luciferase % of control, average",[2]; 200 nM,111.13 % of control
same,TNT-luciferase % of control,"[2]; 600 nM, Experiment #1, replicates, 0.6 µM",114.14 % of control and 111.05 % of control and 117.22 % of control
same,TNT-luciferase % of control,"[2]; 600 nM, Experiment #2, replicates, 0.6 µM",98.84 % of control (2×) and 100.58 % of control
same,"TNT-luciferase % of control, average",[2]; 600 nM,106.78 % of control
same,TNT-luciferase % of control,"[2]; 2000 nM, Experiment #1, replicates, 2 µM",91.77 % of control (2×) and 97.94 % of control
same,TNT-luciferase % of control,"[2]; 2000 nM, Experiment #2, replicates, 2 µM",83.24 % of control and 92.77 % of control and 96.24 % of control
same,"TNT-luciferase % of control, average",[2]; 2000 nM,92.29 % of control
same,TNT-luciferase % of control,"[2]; 6000 nM, Experiment #1, replicates, 6 µM",60.77 % of control and 59.00 % of control and 60.23 % of control
same,TNT-luciferase % of control,"[2]; 6000 nM, Experiment #2, replicates, 6 µM",57.75 % of control and 61.56 % of control and 58.87 % of control
same,"TNT-luciferase % of control, average",[2]; 6000 nM,59.70 % of control
same,TNT-luciferase % of control,"[2]; 20000 nM, Experiment #1, replicates, 20 µM",9.64 % of control and 9.49 % of control and 10.87 % of control
same,TNT-luciferase % of control,"[2]; 20000 nM, Experiment #2, replicates, 20 µM",9.97 % of control and 10.14 % of control and 11.01 % of control
same,"TNT-luciferase % of control, average",[2]; 20000 nM,10.19 % of control
same,TNT-luciferase % of control,"[2]; 60000 nM, Experiment #1, replicates, 60 µM",0.32 % of control and 0.35 % of control and 0.31 % of control
same,TNT-luciferase % of control,"[2]; 60000 nM, Experiment #2, replicates, 60 µM",0.26 % of control and 0.27 % of control and 0.30 % of control
same,"TNT-luciferase % of control, average",[2]; 60000 nM,0.30 % of control
same,TNT-luciferase % of control,"[2]; 200000 nM, Experiment #1, replicates, 200 µM",0.0123 % of control and 0.00453 % of control and 0.000979 % of control
same,TNT-luciferase % of control,"[2]; 200000 nM, Experiment #2, replicates, 200 µM",0.0176 % of control and 0.0228 % of control and 0.0243 % of control
same,"TNT-luciferase % of control, average",[2]; 200000 nM,0.0137 % of control
same,TNT-luciferase LogIC50 (best-fit value),[2]; [5],3.802
same,IC50,"[2]; log(inhibitor) vs. response, variable slope (four parameters), unit from head concentration (nM), read-out: TNT-luciferase IC50 (best-fit value)",6340 nM
same,"Collagen, % of control (single replicates per experiment)","[3]; 10 nM, 0.01 µM",112.57 % of control and 103.72 % of control and 109.80 % of control and 111.67 % of control and 110.64 % of control
same,"Collagen, % of control (single replicates per experiment)","[3]; 100 nM, 0.1 µM",84.02 % of control and 93.58 % of control and 96.09 % of control and 96.94 % of control and 92.86 % of control
same,"Collagen, % of control (single replicates per experiment)","[3]; 300 nM, 0.3 µM",47.78 % of control and 47.63 % of control and 53.20 % of control and 53.43 % of control and 55.58 % of control
same,"Collagen, % of control (single replicates per experiment)","[3]; 1000 nM, 1 µM",11.57 % of control and 11.31 % of control and 12.08 % of control and 14.51 % of control and 14.77 % of control
same,"Collagen, % of control (single replicates per experiment)","[3]; 3000 nM, 3 µM",3.47 % of control and 2.67 % of control and 3.07 % of control and 3.55 % of control and 4.03 % of control
same,"Collagen, % of control (single replicates per experiment)","[3]; 10000 nM, 10 µM",2.75 % of control and 2.12 % of control and 2.44 % of control and 2.49 % of control and 2.64 % of control
same,"Collagen, % of control (single replicates per experiment)","[3]; 30000 nM, 30 µM",3.52 % of control
same,CC50/collagen IC50,[3]; Fig 5E,7.08
same,IC50,"[3]; Homo sapiens, WI26VA4, read-out: Collagen IC50 (best-fit value), log(inhibitor) vs. response, variable slope (four parameters) (converted)",0.257 µM
same,activity at 0.01 µM,"[3]; Homo sapiens, WI26VA4, read-out: Collagen, % of control (single replicates per experiment), 10 nM",112%
same,activity at 0.03 µM,"[3]; Homo sapiens, WI26VA4, read-out: Collagen, % of control (single replicates per experiment), 30 nM",109%
same,activity at 0.1 µM,"[3]; Homo sapiens, WI26VA4, read-out: Collagen, % of control (single replicates per experiment), 100 nM",81.3%
same,activity at 0.3 µM,"[3]; Homo sapiens, WI26VA4, read-out: Collagen, % of control (single replicates per experiment), 300 nM",42.9%
same,activity at 1 µM,"[3]; Homo sapiens, WI26VA4, read-out: Collagen, % of control (single replicates per experiment), 1000 nM",10.2%
same,activity at 3 µM,"[3]; Homo sapiens, WI26VA4, read-out: Collagen, % of control (single replicates per experiment), 3000 nM",2.81%
same,activity at 10 µM,"[3]; Homo sapiens, WI26VA4, read-out: Collagen, % of control (single replicates per experiment), 10000 nM",2.31%
same,activity at 30 µM,"[3]; Homo sapiens, WI26VA4, read-out: Collagen, % of control (single replicates per experiment), 30000 nM",2.54%
same,activity at 0.01 µM,"[3]; Homo sapiens, WI26VA4, read-out: Collagen, % of control, average, 10 nM, average",110%
same,activity at 0.03 µM,"[3]; Homo sapiens, WI26VA4, read-out: Collagen, % of control, average, 30 nM, average",108%
same,activity at 0.1 µM,"[3]; Homo sapiens, WI26VA4, read-out: Collagen, % of control, average, 100 nM, average",90.8%
same,activity at 0.3 µM,"[3]; Homo sapiens, WI26VA4, read-out: Collagen, % of control, average, 300 nM, average",50.1%
same,activity at 1 µM,"[3]; Homo sapiens, WI26VA4, read-out: Collagen, % of control, average, 1000 nM, average",12.4%
same,activity at 3 µM,"[3]; Homo sapiens, WI26VA4, read-out: Collagen, % of control, average, 3000 nM, average",3.27%
same,activity at 10 µM,"[3]; Homo sapiens, WI26VA4, read-out: Collagen, % of control, average, 10000 nM, average",2.46%
same,activity at 30 µM,"[3]; Homo sapiens, WI26VA4, read-out: Collagen, % of control, average, 30000 nM, average",2.88%
same,Collagen HillSlope (best-fit value),[3]; [4],-1.623
same,Collagen LogIC50 (best-fit value),[3]; [5],2.409
same,Relative (CC50)/(collagen IC50),"[3]; relative to HF, Fig 5E",2.11
